In US20250368617A1, “NOVEL RAS INHIBITORS” (KHR BIOTEC GMBH, priority 2022, published 2025):

Columns and labels:
KRAS G12V = target: T1, KRAS G12V (Homo sapiens, UniProt P01116, G12V); assay: NanoBit assay for RAS activation (LgBiT-KRAS G12V / SmBiT-CRAF RAS binding domain); format: cell-based; details: KRAS G12V with CRAF RBD (1-149); 2 h with inhibitor in serum free DMEM; DMSO set as 1
T1 construct: K, N and HRAS G12V (full length) was cloned with Xho I and BgI II to LgBit; expressed in transfected cells
T1 sequence (P01116 1-186 isoform P01116-2 G12V limits assumed): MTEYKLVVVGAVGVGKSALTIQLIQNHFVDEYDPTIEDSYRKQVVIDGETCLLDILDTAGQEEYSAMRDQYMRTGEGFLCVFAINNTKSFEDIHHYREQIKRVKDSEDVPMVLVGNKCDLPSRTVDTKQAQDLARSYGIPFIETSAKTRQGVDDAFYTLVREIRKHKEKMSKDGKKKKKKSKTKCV
Method: (§1) FIGS. 1a) and 1b): NanoBit assay for RAS activation (KRAS G12V, NRAS G12V, HRAS G12V) N-terminal LgBiT and C-terminal SmBiT construct was purchased from Promega and K, N and HRAS G12V (full length) was cloned with Xho I and BgI II to LgBit and CRAF RAS binding domain (1-149) was cloned with EcoRI and BgI II to SmBit. For transfections, 1 μg or 2 μg of (12 well/6 well) plasmids were transfected into cells with 0.5 mM of PEI reagent in 100 μl or 200 μl PBS. One day after transfection, cells were harvested and seeded into 96 well white plates, half area (Greiner). After an additional day the medium was changed to serum free DMEM and the cells were incubated for 2 h with inhibitors. NanoGlo assay was performed according to the manufacturer's instructions. The luminescence was measured using Tecan infinite (Tecan). DMSO-treated cells were set as 1. The results shown are mean mean±SEM from at least 3 independent experiments.

NRAS G12V = target: T2, NRAS G12V (Homo sapiens, UniProt P01111, G12V); assay: NanoBit assay for RAS activation (LgBiT-NRAS G12V / SmBiT-CRAF RAS binding domain); format: cell-based; details: NRAS G12V with CRAF RBD (1-149); 2 h with inhibitor in serum free DMEM; DMSO set as 1
T2 construct: K, N and HRAS G12V (full length) was cloned with Xho I and BgI II to LgBit; expressed in transfected cells
T2 sequence (P01111 1-186 G12V limits assumed): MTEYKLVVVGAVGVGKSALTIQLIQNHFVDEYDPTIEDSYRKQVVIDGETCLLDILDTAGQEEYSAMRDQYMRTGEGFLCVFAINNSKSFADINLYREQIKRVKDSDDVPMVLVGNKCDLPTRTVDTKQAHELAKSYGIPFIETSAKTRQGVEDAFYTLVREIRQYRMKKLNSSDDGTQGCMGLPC
Method: as §1

HRAS G12V = target: T3, HRAS G12V (Homo sapiens, UniProt P01112, G12V); assay: NanoBit assay for RAS activation (LgBiT-HRAS G12V / SmBiT-CRAF RAS binding domain); format: cell-based; details: HRAS G12V with CRAF RBD (1-149); 2 h with inhibitor in serum free DMEM; DMSO set as 1
T3 construct: K, N and HRAS G12V (full length) was cloned with Xho I and BgI II to LgBit; expressed in transfected cells
T3 sequence (P01112 1-186 G12V limits assumed): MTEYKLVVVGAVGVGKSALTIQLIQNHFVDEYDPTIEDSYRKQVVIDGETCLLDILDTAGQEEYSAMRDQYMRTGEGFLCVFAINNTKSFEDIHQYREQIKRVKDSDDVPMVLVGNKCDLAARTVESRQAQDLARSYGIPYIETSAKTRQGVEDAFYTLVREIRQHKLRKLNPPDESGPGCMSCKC
Method: as §1

ASPC1 cells = assay: Soft agar colony formation assay with MTT staining; format: cell-based; details: Homo sapiens, growth in soft agar, absorbance at 570 nm
Method: (§2) Metabolic activity was quantified using Cell Proliferation Kit I (Roche, Basel, Switzerland). Cells were seeded in 96-well cell culture plates, using 5000 cells per well for NCI-H358 cells. After treatment, 10 μl of MTT solution was added and incubated for 2 h in CO2 incubator. Then 100 μl of solubilization buffer was added to each well and incubated overnight in CO2 incubator. Cell viability, assessed by the amount of metabolized MTT, was quantified by measuring absorbance at 570 nm.
(§3) MTT assay for the growth of different tumor cell lines with RAS mutations in soft agar with GSK2126458. Shown are data from three independent experiments.
(§4) NCI-H358, H358, H2122, ASPC-1, HCT-116, T24 and HT1080 cells were used for the soft […] agar colony formation assay. After the treatment with GSK2126458, the colonies were stained with MTT and the value was quantified by measuring absorbance at 570 nm after solubilization. The results represent mean±SD from 3 independent experiments.

HCT-116 cells = assay: Soft agar colony formation assay with MTT staining; format: cell-based; details: Homo sapiens, growth in soft agar, absorbance at 570 nm
Method: as §2, §3, §4

HT1080 cells = assay: Soft agar colony formation assay with MTT staining; format: cell-based; details: Homo sapiens, HT-1080, growth in soft agar, absorbance at 570 nm
Method: as §2, §3, §4

NCI-H2122 cells = assay: Soft agar colony formation assay with MTT staining; format: cell-based; details: Homo sapiens, growth in soft agar, absorbance at 570 nm
Method: as §2, §3, §4

NCI-H358 cells = assay: Soft agar colony formation assay with MTT staining; format: cell-based; details: Homo sapiens, growth in soft agar, absorbance at 570 nm
Method: as §2, §3, §4

T24 cells = assay: Soft agar colony formation assay with MTT staining; format: cell-based; details: Homo sapiens, T-24, growth in soft agar, absorbance at 570 nm
Method: as §2, §3, §4

[1] = test system: LgBit-KRAS mutants (G12V, G12C, G12D, G12C/Y96D, G13C, G13D, G13S, Q61K and Q61R); assay: NanoBit assay for inhibition of RAS activation, KRAS mutants in HeLa cells; format: cell-based; details: LgBit-KRAS mutants and SmBit-CRAF-RBD, 2 h in serum-free DMEM
Method: FIG. 3: NanoBit assay for inhibition of RAS activation (G12V, G12C, G12D, G12C/Y96D, G13C, G13D, G13S, Q61K and Q61R)
NanoBiT assay for the RAS GTP-loading was performed in HeLa cells transfected with LgBit-KRAS mutants and SmBit-CRAF-RBD. Cells were treated with GSK2126458 according to the invention for 2 h in serum-free DMEM. After incubation, the substrate for NanoLuc was added, and the luminescence was measured in a multiplate reader. Data were normalized to cells transfected with the indicated mutant and exposed to DMSO for 2 h. DMSO-treated cells were set as 1. The bars represent mean±SEM from 3 independent experiments.

KRAS dependent cells = assay: MTT assay for cell viability in 96 well cell culture plate (FIG. 4); format: cell-based; details: 48 h treatment; incl. G12C/Y96D mutation; DMSO set as 1
Method: as §2
FIG. 4: MTT assay for cell viability in 96 well cell culture plate Cells were treated with GSK2126458 for 48 h and cell viability was evaluated by MTT assay. […]. DMSO-treated cells were set as 1. The results shown are mean±SEM from 3 independent experiments.

sNF96.2 = assay: RASOpathie-Model; MTT assay for cell viability in 96 well cell culture plate (FIG. 5); format: cell-based; details: 48 h treatment
Method: as §2
FIG. 5: RASOpathie-Model of GSK2126458; MTT assay for cell viability in 96 well cell culture plate
Cells were treated with GSK2126458 for 48 h and cell viability was evaluated by MTT assay. DMSO-treated cells were set as 1. The results shown are mean±SEM from 3 independent experiments.

[2] = test system: p110a, p110β, p110γ, p110σ, and the mTOR1 and mTOR2 complexes and DNA-PK; details: ATP-competitive, reversible; cited from earlier work

- inhibition of K-RAS activation (NanoBit luminescence) (KRAS G12V): inhibits
- inhibition of N-RAS activation (NanoBit luminescence) (NRAS G12V): inhibits
- inhibition of H-RAS activation (NanoBit luminescence) (HRAS G12V): inhibits
- IC50 (ASPC1 cells): 10.8 µM
- IC50 (HCT-116 cells): 47.4 µM
- IC50 (HT1080 cells): 86.9 µM
- IC50 (NCI-H2122 cells): 4.51 µM
- IC50 (NCI-H358 cells): 11.5 µM
- IC50 (T24 cells): 228 µM
Structure (SMILES): COc1ncc(-c2ccc3nccc(-c4ccnnc4)c3c2)cc1NS(=O)(=O)c1ccc(F)cc1F [GSK2126458, 2,4-Difluoro-N-[2-methoxy-5-[4-(4-pyridazinyl)-6-quinolinyl]-3-pyridinyl]benzenesulfonamide]
- inhibition of RAS activation (RAS GTP-loading, NanoBiT) [1]: inhibits different RAS-isoforms
- cell viability (MTT) (KRAS dependent cells): inhibits KRAS dependent cells irrespective of the presence of mutation
- IC50 (sNF96.2): 3.8 µM
- activity against PI3K isoforms, mTOR complexes and DNA-PK [2]: subnanomolar activity
